Laboratory results as given in PubChem BioAssay AID1963841 (Molecular Pharmacology Branch, DTP, NCI, 2024).

Tested on: 439559-082-T-J2-PDC spheroid viability
Test: Anticancer human tumor 439559-082-T-J2-PDC patient-derived colon adenocarcinoma cell line growth inhibition [POLQ]
Conditions: spheroids with HUVEC and MSC; for IC50: curve of first compound; for viability, T/C: stronger effect = lower value
Summary of the method: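 PDC + HUVEC + MSC complex spheroids; POLQ inhibitors ± partner drugs; top conc. at/near clinical Cmax, else 10 microM (SN-38 1 microM), half-log dilutions; 37 degrees C, 5% CO2.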

[1] = second compound 0.0316 µM, first compound 0.0316 µM
[2] = second compound 0.0316 µM, first compound 0.1 µM
[3] = second compound 0.0316 µM, first compound 0.316 µM
[4] = second compound 0.0316 µM, first compound 1 µM
[5] = second compound 0.0316 µM, first compound 3.16 µM
[6] = second compound 0.0316 µM, first compound 10 µM
[7] = second compound 0.1 µM, first compound 0.0316 µM
[8] = second compound 0.1 µM, first compound 0.1 µM
[9] = second compound 0.1 µM, first compound 0.316 µM
[10] = second compound 0.1 µM, first compound 1 µM
[11] = second compound 0.1 µM, first compound 3.16 µM
[12] = second compound 0.1 µM, first compound 10 µM
[13] = second compound 0.316 µM, first compound 0.0316 µM
[14] = second compound 0.316 µM, first compound 0.1 µM
[15] = second compound 0.316 µM, first compound 0.316 µM
[16] = second compound 0.316 µM, first compound 1 µM
[17] = second compound 0.316 µM, first compound 3.16 µM
[18] = second compound 0.316 µM, first compound 10 µM
[19] = second compound 1 µM, first compound 0.0316 µM
[20] = second compound 1 µM, first compound 0.1 µM
[21] = second compound 1 µM, first compound 0.316 µM
[22] = second compound 1 µM, first compound 1 µM
[23] = second compound 1 µM, first compound 3.16 µM
[24] = second compound 1 µM, first compound 10 µM
[25] = second compound 3.16 µM, first compound 0.0316 µM
[26] = second compound 3.16 µM, first compound 0.1 µM
[27] = second compound 3.16 µM, first compound 0.316 µM
[28] = second compound 3.16 µM, first compound 1 µM
[29] = second compound 3.16 µM, first compound 3.16 µM
[30] = second compound 3.16 µM, first compound 10 µM
[31] = second compound 10 µM, first compound 0.0316 µM
[32] = second compound 10 µM, first compound 0.1 µM
[33] = second compound 10 µM, first compound 0.316 µM
[34] = second compound 10 µM, first compound 1 µM
[35] = second compound 10 µM, first compound 3.16 µM
[36] = second compound 10 µM, first compound 10 µM
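Further: spheroids exposed to compounds for seven days before readout.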
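Wherever viability, T/C is given: 100% = DMSO vehicle control viability.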

`C#Cc1c(F)ccc2cc(O)cc(-c3ncc4c(N5CC6CCC(C5)N6)nc(OCC56CCCN5CC(F)C6)nc4c3F)c12` (centres undefined) + Cc1cccc(N(C)C(=O)C2C(O)CCN2c2nc(C)cc(C(F)(F)F)c2C#N)c1 was tested, and the IC50 (second compound 0.0316 µM) was over 10 µM, the IC50 (second compound 0.1 µM) was over 10 µM and the IC50 (second compound 0.316 µM) was over 10 µM. It also gave an IC50 (second compound 1 µM) of over 10 µM, an IC50 (second compound 3.16 µM) of over 10 µM and an IC50 (second compound 10 µM) of 7.64 µM. The viability, T/C [1] was 92%, the viability, T/C [2] was 86.6% and the viability, T/C [3] was 72.3%. The viability, T/C [4] was 63.1%, the viability, T/C [5] was 61.9% and the viability, T/C [6] was 52.5%. For the same molecule, the viability, T/C [7] was 100%, the viability, T/C [8] was 81.5% and the viability, T/C [9] was 72.1%. It also gave a viability, T/C [10] of 70.7%, a viability, T/C [11] of 59.2% and a viability, T/C [12] of 55%. For the same molecule, the viability, T/C [13] was 99%, the viability, T/C [14] was 87.6% and the viability, T/C [15] was 72%. It also gave a viability, T/C [16] of 69.9%, a viability, T/C [17] of 61.2% and a viability, T/C [18] of 60.3%. It also gave a viability, T/C [19] of 87.6%, a viability, T/C [20] of 78.1% and a viability, T/C [21] of 72.4%. For the same molecule, the viability, T/C [22] was 66.7%, the viability, T/C [23] was 62% and the viability, T/C [24] was 51.8%. It also gave a viability, T/C [25] of 94.5%, a viability, T/C [26] of 80.9% and a viability, T/C [27] of 69.8%. The viability, T/C [28] was 65.7%, the viability, T/C [29] was 63.2% and the viability, T/C [30] was 52.5%. It also gave a viability, T/C [31] of 81.2%, a viability, T/C [32] of 69.1% and a viability, T/C [33] of 69%. For the same molecule, the viability, T/C [34] was 58.1%, the viability, T/C [35] was 58.2% and the viability, T/C [36] was 46.7%.
For `CCc1cc2c(N3CCc4c(cc(Cn5ccnc5)cc4-c4cn(C)nc4C(F)(F)F)C3=O)cc(C)nc2c(OC)n1` + Cc1cccc(N(C)C(=O)C2C(O)CCN2c2nc(C)cc(C(F)(F)F)c2C#N)c1, the IC50 (second compound 0.0316 µM) was over 10 µM, the IC50 (second compound 0.1 µM) was over 10 µM and the IC50 (second compound 0.316 µM) was over 10 µM. It also gave an IC50 (second compound 1 µM) of over 10 µM, an IC50 (second compound 3.16 µM) of over 10 µM and an IC50 (second compound 10 µM) of over 10 µM. For the same molecule, the viability, T/C [1] was 105%, the viability, T/C [2] was 101% and the viability, T/C [3] was 101%. The viability, T/C [4] was 98.3%, the viability, T/C [5] was 95.1% and the viability, T/C [6] was 97.3%. It also gave a viability, T/C [7] of 101%, a viability, T/C [8] of 96.9% and a viability, T/C [9] of 90.2%. It also gave a viability, T/C [10] of 77.2%, a viability, T/C [11] of 111% and a viability, T/C [12] of 105%. The viability, T/C [13] was 94.7%, the viability, T/C [14] was 95.3% and the viability, T/C [15] was 105%. The viability, T/C [16] was 81%, the viability, T/C [17] was 90.6% and the viability, T/C [18] was 89.8%. For the same molecule, the viability, T/C [19] was 96.6%, the viability, T/C [20] was 104% and the viability, T/C [21] was 95.8%. The viability, T/C [22] was 95.7%, the viability, T/C [23] was 99.6% and the viability, T/C [24] was 94.9%. For the same molecule, the viability, T/C [25] was 111%, the viability, T/C [26] was 93.6% and the viability, T/C [27] was 87.6%. For the same molecule, the viability, T/C [28] was 92.2%, the viability, T/C [29] was 107% and the viability, T/C [30] was 94%. It also gave a viability, T/C [31] of 94.8%, a viability, T/C [32] of 111% and a viability, T/C [33] of 80.7%. For the same molecule, the viability, T/C [34] was 91.5%, the viability, T/C [35] was 98.1% and the viability, T/C [36] was 86%.
